# Data from publication PMC10113214 (Scientific Reports, 2023).
# Tests used:
# [1] = Circular dichroism, conformation and thermal stability of β-sheet; type: physicochemical; conditions: CD
# Experimental: The molar ellipticity of peptides were registered on a Jasco J-815 spectrometer (JASCO, Easton, MD, USA). Solutions of peptide hybrids were prepared in water solution (10 mg/ml), incubated at 37 °C for 4 h and then diluted to a final concentration of 0.20 mg/ml. CD spectra measurements were performed at 25 °C, 30 °C, 35 °C, 40 °C, 45 °C, 50 °C, 55 °C and 60 °C, at 190–260 nm wavelength and at a scan speed of […]. The background of the solvent was subtracted. The results are presented as the relationship of mean residue molar ellipticity (MRME) [deg × cm^2 × dmol^−1] to wavelength [nm]. Measurements were performed in triplicate. In order to determine the peptides’ denaturation temperatures, the molar ellipticity rotatory angle at a fixed wavelength of 196 nm, [θ]196, was measured as a function of temperature (max 100 °C). CD temperature measurements were carried out up to a temperature of 100 °C. Above this temperature, the cure was extrapolated with GraphPad Prism 8 software using the 4PL curve fit function. The denaturation temperature was determined as the temperature at which the change in ellipticity (θ) was half complete.
# 46BR.1N fibroblasts = experiment: LDH cytotoxicity assay, 46BR.1N; type: cell-based, human; conditions: 150 µg/ml, 48 h, 3 independent experiments, n = 12
# Experimental: (§1) Human HaCaT keratinocytes (DKFZ, Heidelberg, Germany)[47],[48], the human dermal fibroblast 46BR.1N cell line (ECACC, Sigma Aldrich Co.) and human primary dermal fibroblasts used in this study were routinely cultured in culture flasks (growth surface area: 25 cm^2) in DMEM-HG medium supplemented with 10% fetal bovine serum, 100 U/mL penicillin and […] streptomycin under standard conditions.
# (§2) Briefly, the HaCaT and 46BR.1N cells were seeded in 96-well plates at a density of 5000 per well. Cell stimulation with RADA derivatives was performed using a protocol described before[49],[50]. Both assays were performed according to the manufacturers’ instructions (XTT- Roche, Cat. No. 11465015001; LDH- Takara, Cat. No. MK401).
# dorsal skin wounds = experiment: Histological evaluation of skin samples; type: in vivo, BALB/c mice; conditions: Masson’s trichrome, versus RADA16-I group, Mann–Whitney U test
# Description: Mice were sacrificed on day 18 post-injury. In addition, for investigation of early wound healing, 1 mouse from each group was sacrificed on day 4 post-injury. The skin samples were collected and stored in formalin. Skin samples embedded in paraffin were cut into 5 µm sections following staining with Masson’s trichrome (green: collagen, dermis; grey or dark grey: cell nuclei, epidermis, sebaceous glands; dark red: keratinized epidermis, muscle, hair; light red: red blood cells). Image acquisitions were made with a Leica DM IL microscope. To evaluate the collagen density in dorsal skin wounds, we employed the method of colour deconvolution described by Ruifrok and Johnston[52]. Using the ImageJ software with a colour deconvolution plug-in[53], we analyzed between 7 and 9 images of dorsal skin samples stained with Masson’ trichrome, representing 2–3 mice per group. The results are presented as mean relative collagen density.
# Rheology of hydrogels = type: physicochemical; conditions: 1% hydrogel, 37 °C
# Experimental: Rheological parameters of the hydrogels were identified using an MCR 302 rheometer (Anton Paar GmbH, Graz, Austria). The rheometer was equipped with a CP50-1 stainless steel cone-and-plate system of 50 mm diameter, 1° cone angle and 50 µm cone truncation and a Peltier controlled temperature unit. An aliquot of 900 µL of 1% hydrogel was applied to a plate cone. The linear viscoelastic (LVE) region was determined through an amplitude sweeps: shear strain (0.01–100% at 6 rad s^−1) and shear stress (0.001–10 Pa at 6.28 rad s^−1). Frequency sweep were measured from 0.01 to 100 rad s^−1 at 2.5% strain. The frequency dependence of the storage modulus (G’) and loss modulus (G”) of the hydrogels were measured at 37 °C. All experiments were carried out in triplicate and reported as the mean of three repeats.
# HaCaT keratinocytes = experiment: LDH cytotoxicity assay, HaCaT; type: cell-based, human; conditions: 150 µg/ml, 48 h, 3 independent experiments, n = 12
# Experimental: as §1, §2
# [2] = test system: human primary dermal fibroblasts; type: cell-based
# Experimental: Skin samples were obtained from patients of the Oncological Surgery Clinic in the Medical University of Gdańsk. The procedure was approved by the Independent Bioethics Commission for Research of the Medical University of Gdańsk (NKBBN/387/2014) and written informed consent was obtained from patients prior to surgery. All experiments were performed in accordance with guidelines and regulations. The isolation of fibroblasts was performed by explant culture as previously described. Briefly, skin samples were cut into small pieces, and the epidermis was removed by dispase digestion. To allow cells to grow out from the tissue samples, the human dermis was placed in 6-well plates in DMEM-HG medium (Sigma Aldrich Co., cat. D6429) supplemented with 10% of FBS (fetal bovine serum, Sigma-Aldrich Co., F9665), 100 U/mL of penicillin and 100 μg/mL streptomycin, and placed under standard conditions (humidified atmosphere with 5% CO2 at 37 °C). The medium was changed every 2–3 days.
# RADA peptides were dissolved in water at a concentration of 1.0%, placed in culture inserts (0.4 μm) in 24-well plates, and incubated for at least 1 h at 37 °C to allow gelation. […] After 3 days of incubation, cells were stained with carboxyfluorescein succinimidyl ester (CFSE) (10 μM) and propidium iodide (100 µM) for 3 min. and then analyzed by fluorescence microscopy to assess their viability.
structure (smiles),measurement,setting,value
"CC(=O)N[C@@H](CCCNC(=N)N)C(=O)N[C@@H](C)C(=O)N[C@@H](CC(=O)O)C(=O)N[C@@H](C)C(=O)N[C@@H](CCCNC(=N)N)C(=O)N[C@@H](C)C(=O)N[C@@H](CC(=O)O)C(=O)N[C@@H](C)C(=O)N[C@@H](CCCNC(=N)N)C(=O)N[C@@H](C)C(=O)N[C@@H](CC(=O)O)C(=O)N[C@@H](C)C(=O)N[C@@H](CCCNC(=N)N)C(=O)N[C@@H](C)C(=O)N[C@@H](CC(=O)O)C(=O)N[C@@H](C)C(=O)NCC(=O)NCC(=O)NCC(=O)N[C@@H](C)C(=O)N[C@@H](C)C(=O)N1CCC[C@H]1C(=O)N[C@H](C(=O)NCC(=O)NCC(=O)NCC(=O)N[C@@H](CCCCN)C(=O)NCC(=O)N[C@@H](Cc1c[nH]cn1)C(=O)N[C@@H](CCCCN)C(N)=O)C(C)C [RADA-KGHK, Ac-(Arg-Ala-Asp-Ala)4-Gly-Gly-Gly-Ala-Ala-Pro-Val-Gly-Gly-Gly-Lys-Gly-His-Lys-NH2]",temperature of first disruption of the β-sheets,"[1]; [θ]196 nm as function of temperature 4–100 °C, gel 10 mg/ml in water, 37 °C 4 h, diluted to 0.20 mg/ml, decrease of molar ellipticity",~61 °C
same,"transition temperature (half β-conformation, half disordered)","[1]; [θ]196 nm vs temperature, 0.20 mg/ml in water, above 100 °C curve extrapolated, 4PL fit",about 92 °C
same,"cytotoxicity (LDH), slight effect",46BR.1N fibroblasts,ca. 15%
same,epithelium (membrane-like structure) thickness on day 4 post-injury,dorsal skin wounds,significantly thicker epithelium
same,magnitude of G’ compared with other gels,"Rheology of hydrogels; cone-plate, frequency sweep, mean of three repeats",around one-tenth of these values
same,shear strain above which the gel behaves like a liquid (G” > G’),"Rheology of hydrogels; strain sweep, ω = 6.28 rad/s",above 25%
same,"cytotoxicity (LDH), slight effect",HaCaT keratinocytes,ca. 15%
same,viability / dead cells on scaffold (CFSE / propidium iodide),[2],most dead cells were observed
